Results as given in patent publication US20060183802A1, “Compositions and methods for treating amyotrophic lateral sclerosis (ALS)” (priority 2004, published 2006).
Converted amounts (≈) assume the structure as drawn.

Key:
[1] = system: SOD (wild type and A4V, G85R and G37R mutants); assay: Copper/H2O2-induced oxidative aggregation of demetallated SOD after Cys-111 modification, monitored by light scattering; assay type: biochemical, human
Protocol: Unmodified SOD aggregation. SOD aggregation of SOD with an umodified Cys-111 residue was achieved by mixing 10 μM SOD with 0.8 mM copper sulfate (CuSO4) and 10 mM hydrogen peroxide (H2O2) in 20 mM Tris at 37° C. (pH 7.4). SOD aggregation of SOD modified at the Cys-111 residue.
Modified (Blocked […] Residue) aggregation. Treatment with iodoacetate and DTNB was carried out at 0.73 mg/ml demetallated SOD, 20 mM Tris, 20 mM phosphate with 10 mM modifying reagent in each at pH 7.4 and room temperature for one hour. In the case of DTNB treatment, both protein solution and the buffer were nitrogen fused prior to the reaction. Modified SOD samples were then dialyzed against 20 mM Tris buffer at pH 7.8 in room temperature. All of the modified SOD samples were prepared fresh just before inducing oxidation with copper (0.8 mM) and hydrogen peroxide (10 mM).
Kinetic Studies of modified and unmodified SOD aggregation. To monitor the kinetics of aggregation, the SOD solution was equilibrated in a quartz cuvette at 37° C. for 5 min within the sample chamber of a Hitachi F-4500 fluorimeter, at which point a freshly made solution containing the CuSO4, H2O2, and Tris was added. Using a small stir bar, the solution was mixed for 5 s, and the light scattered at a 90° angle was immediately monitored for 1 h at an excitation and emission wavelengths of 350 with 2.5 nm slit width. […]

[2] = system: SOD; assay: In vitro oxidative aggregation of SOD in presence of orotate; assay type: biochemical, human
Source text: The scope of the current study that led to the discovery of anti-aggregation effect of orotate was based the inventor's aggregation model involving the open dimers (FIG. 9) as discussed in Example 2.

[3] = according to MSDS; cited from earlier work
[4] = system: Cu/Zn superoxide dismutase; settings: rat liver, dietary administration; cited from earlier work
[5] = system: mouse models; settings: dietary administration; cited from earlier work
[6] = system: cardiomyopathic hamsters; settings: dietary administration; cited from earlier work

O=C(O)c1cc(SSc2ccc([N+](=O)[O-])c(C(=O)O)c2)ccc1[N+](=O)[O-] [DTNB, dithionitro benzoic acid]
aggregation of SOD after treatment with sulfhydryl blocking reagent ([1]; 10 mM modifying reagent, pH 7.4, one hour, then 0.8 mM copper, 10 mM H2O2, WT, A4V, G85R, G37R apo SOD): inhibited

O=C(O)CI [iodoacetate]
aggregation of SOD after treatment with sulfhydryl blocking reagent ([1]; pH 7.4): inhibited

O=C(O)c1cc(=O)[nH]c(=O)[nH]1 [orotic acid]
anti-aggregation activity across SOD variants ([2]; different variants of SOD with different extent of dimer opening): different level of anti-aggregation activity in different variants of SOD
effect on in vitro oxidative aggregation of SOD ([2]; in vitro oxidative aggregation): inhibition of in vitro oxidative aggregation
solubility in water [3]: 7 mM (≈ 1090 µg/mL)
Cu/Zn superoxide dismutase mRNA level [4]: reduction
SOD activity [4]: corresponding reduction
memory and synaptic long-term potentiation [5]: improve memory and synaptic long-term potentiation
conditions of cardiomyopathic hamsters [6]: improve
